logP, CLint scaled and half-life data for 3 compounds are collected here from ChEMBL document CHEMBL5390254, “Discovery and Optimization of Novel hDHODH Inhibitors for the Treatment of Inflammatory Bowel Disease” (J Med Chem, 2023).

Series [1] in a line: 1-octanol/water partition coefficient, logP of the compound at 2 mg by UPLC analysis. Type of series: physicochemical.
Series [2] in a line: Metabolic stability in mouse liver microsomes assessed as intrinsic clearance at 3 uM incubated upto 90 mins in presence of NADPH by LC-MS/MS analysis. Particulars: read-out: CLH. Type of series: ADME, Microsome. A general note: Liver microsomes are a subcellular fraction often used to study metabolism.
Series [3] is described as follows: Metabolic stability in human liver microsomes assessed as intrinsic clearance at 3 uM incubated upto 90 mins in presence of NADPH by LC-MS/MS analysis. Type of series: ADME, Microsome. Particulars: read-out: CLH.
Series [4] is described as follows: Metabolic stability in rat liver microsomes assessed as half life at 3 uM incubated upto 90 mins in presence of NADPH by LC-MS/MS analysis. The series is classed as ADME, Microsome.
Series [5] in a line: Metabolic stability in mouse liver microsomes assessed as half life at 3 uM incubated upto 90 mins in presence of NADPH by LC-MS/MS analysis. The series is classed as ADME, Microsome.
The nature of series [6]: Metabolic stability in human liver microsomes assessed as half life at 3 uM incubated upto 90 mins in presence of NADPH by LC-MS/MS analysis. The series is classed as ADME, Microsome.
Series [7] can be described thus: Metabolic stability in rat liver microsomes assessed as intrinsic clearance at 3 uM incubated upto 90 mins in presence of NADPH by LC-MS/MS analysis. The note with it: read-out: CLH. Type of series: ADME, Microsome.

Molecules are shown by their SMILES.

In general, logP refers to the decadic logarithm of the partition coefficient of the neutral form, usually between octanol and water. `Fc1cccc(F)c1Cn1cc(-c2ncc(C3CC3)cn2)c2cccnc21`: in series [1], the logP worked out at 5.5.
`Nc1nc(-c2cn(Cc3c(F)cccc3F)c3ncccc23)ncc1C1CC1` displayed a logP in series [1] of 5.1.
A word on the half-life: it is the time needed for the level to fall by half in the phase considered. With `Nc1nc(-c2nn(Cc3ccccc3F)c3ncccc23)ncc1C1CC1`, the values for the CLint scaled at 3 µM in series [2], in series [3] and in series [7] were 177 mL/min/kg, 45.7 mL/min/kg and 101 mL/min/kg, respectively. Further, the figures for the half-life at 3 µM in series [4], in series [5] and in series [6] were 24.5 min, 30.8 min and 38.1 min, respectively.
